Assay results reported in patent US20120077876A1, “Method For Improved Bioactivation Of Pharmaceuticals” (Dritte Patentportfolio Beteiligungsgesellschaft Mbh & Co. KG, priority 2009, published 2012).
Blank lines part the entries; values can stand above or below the molecule they belong to.

Legend:
[1] = biological target: T1, peptidylglycine α-amidating monooxygenase (PAM) (Rattus norvegicus, UniProt P14925); assay: PAM assay with colorimetric determination of glyoxylate formation; format: biochemical; conditions: for formation of glyoxylate as the cleavage product of the PAM catalysis: colorimetric assay, substrate 0.1 mM or 1 mM, pH 6.0 and pH 7.4, 37° C.
T1 construct: purchased Unigene Laboratories, Inc. (New Jersey, USA)
T1 sequence (P14925 36-871 isoform P14925-2 limits assumed): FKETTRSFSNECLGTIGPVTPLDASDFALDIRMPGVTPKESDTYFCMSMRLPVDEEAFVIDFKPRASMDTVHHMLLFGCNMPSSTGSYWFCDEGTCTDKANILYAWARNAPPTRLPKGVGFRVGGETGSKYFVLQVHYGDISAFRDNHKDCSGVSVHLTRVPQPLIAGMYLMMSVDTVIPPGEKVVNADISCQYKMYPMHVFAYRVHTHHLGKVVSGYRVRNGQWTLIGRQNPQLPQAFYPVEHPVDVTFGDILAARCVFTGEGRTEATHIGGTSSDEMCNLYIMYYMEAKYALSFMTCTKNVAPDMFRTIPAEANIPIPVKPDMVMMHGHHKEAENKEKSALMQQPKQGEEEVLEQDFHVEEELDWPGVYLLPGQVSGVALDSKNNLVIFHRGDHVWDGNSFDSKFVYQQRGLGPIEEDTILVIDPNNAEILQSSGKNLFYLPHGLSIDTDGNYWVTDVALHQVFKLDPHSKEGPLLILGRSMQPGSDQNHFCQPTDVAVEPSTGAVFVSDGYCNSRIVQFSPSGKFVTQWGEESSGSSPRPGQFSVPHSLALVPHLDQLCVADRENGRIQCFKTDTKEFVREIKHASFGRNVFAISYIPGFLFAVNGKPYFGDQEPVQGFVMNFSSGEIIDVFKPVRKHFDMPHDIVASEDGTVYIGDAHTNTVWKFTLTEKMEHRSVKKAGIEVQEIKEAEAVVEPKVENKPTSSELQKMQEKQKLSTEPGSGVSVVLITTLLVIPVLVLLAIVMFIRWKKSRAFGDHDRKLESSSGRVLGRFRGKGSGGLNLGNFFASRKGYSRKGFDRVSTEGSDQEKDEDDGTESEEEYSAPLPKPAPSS
Method: (§1) The recombinant peptidylglycine α-amidating monooxygenase (PAM, rat, EC 1.14.17.3) that was used was provided by Unigene Laboratories, Inc. (New jersey, USA) (specific activity=5.8 10^6 U/mg protein); bovine liver catalase (EC 1.11.1.6), specific activity=12600 U/mg solid (Aldrich).
(§2) A typical incubation batch of 300 μl (total volume) contained 25000 U/ml peptidylglycine α-amidating monooxygenase (PAM, company: Unigene Laboratories), 250 U/ml catalase, 1 μM copper(II) (employed as acetate/monohydrate), 2 mM sodium ascorbate, 5 mM potassium iodide and the respective substrate in 0.1 mM or 1 mM concentration, in buffers having different pH values. The buffer system used was 30 mM MES for the incubation at pH 6.0 and 50 mM HEPES for the incubation at pH 7.4. The pH value was adjusted in each case with diluted sodium hydroxide. The incubation was carried out at 37° C. in the shaking water bath for 60 minutes, 100 μl was withdrawn, and the reaction was stopped with 50 μl 10% TFA(aq)/acetonitrile (2:3). The remaining batch was incubated for another 180 minutes at 37° C. and stopped with 100 μl 10% TFA(aq)/acetonitrile (2:3).
(§3) The stopped samples were shaken for 5 minutes (vortexer) and frozen at −80° C. To analyze the samples, they were thawed, shaken for 5 minutes, and the precipitated protein was centrifuged at 10000 rpm. The supernatant was used for the colorimetric glyoxylate determination and/or HPLC measurement.
200 μl of the incubation batch that was freed of protein was mixed with 20 μl of a phenylhydrazine solution (20 mg in 2 ml aqua bidest.) and shaken for 5 minutes in the shaking water bath at 37° C. […] The batch was allowed to rest for 15 minutes at room temperature and 200 μl was withdrawn for the measurement using a Plate Reader (Cary 50 UV-Vis photometer, 520 nm).
For a 5-point calibration, glyoxalic acid in concentrations of 2, 5, 10, 50 and 100 μM in a 2:1 mixture of assay buffer (pH 6.0):10% TFA(aq)/acetonitrile (2:3) was measured as described above. […]

[2] = biological target: T1, peptidylglycine α-amidating monooxygenase (PAM); assay: PAM substrate kinetics (KM and Vmax) by HPLC; format: biochemical; conditions: for Vmax value: pH 6.0, 30 minutes incubation, n=2
Method: as §1
as §2, with “The incubation was carried out at 37° C. in the shaking water bath for 60 minutes, 100 μl was withdrawn, and the reaction was stopped with 50 μl 10% TFA(aq)/acetonitrile (2:3).” left out
as §3
For the KM and Vmax determination, 100 μl batches were treated at pH 6.0 under the aforementioned conditions, however with the difference that the incubation time was 30 minutes.
HPLC Analysis for Separating O-carboxymethyl benzamidoxime (1) and benzamidoxime (2)
(§4) For the calibration, benzamidoxime was dissolved in eight concentrations of 0.1-500 μM, dissolved in assay buffer (30 mM MES, 1 μM copper(II) acetate, 2 mM sodium ascorbate, 5 mM potassium iodide, pH 6.0), and measured using the aforementioned HPLC method. […]
(§5) For the calibration, N-hydroxy-N′,N″-diphenyl guanidine (4) was dissolved in eight concentrations of 0.1-500 μM, dissolved in assay buffer (30 mM MES, […], 2 mM sodium ascorbate, 5 mM potassium iodide, pH 6.0), and measured using the aforementioned HPLC method.

cytochrome P450 (CYP450) [3] = assay: CYP450 substrate study, porcine liver microsomes and 9000 g supernatant; format: in vitro ADME; conditions: pork liver enzyme sources, pH 6.0 and pH 7.4, NADH or NADPH, 60 or 180 minutes
Method: The pork livers were procured from a local butcher (Bordesholm) and the organs were transported directly after slaughter in an ice-cooled 20 mM phosphate buffer (1 mM Na2 EDTA, pH 7.4). For further processing, the liver lobes were first perfused with 50 mM phosphate buffer (1 mM Na2 EDTA, pH 7.4) and washed. The tissue was cut into pieces and run through a commercially available meat grinder. The suspension was diluted an equal volume of phosphate buffer and homogenized using a flow homogenizer. The microsomes and 9000 g supernatant were further obtained by differential ultracentrifugation. For storage, the resulting preparations were aliquotted and frozen at −80° C.
(§6) A typical incubation bath of 500 μl (total volume) contained 0.3 mg protein (pork or human liver enzyme source), 0.1 mM (or 1 mM) test compound in 100 mM phosphate buffer (pH 6.0 or pH 7.4) and 1 mM NADH (or NADPH). The incubation was started after a 5-minute pre-incubation of the enzyme and test compound in buffer, adding NADH (or NADPH), and the product was shaken for 60 minutes or 180 minutes at 37° C. in the shaking water batch. The batches were stopped by adding the same volume of acetonitrile, shaken using the vortexer, and frozen at −80° C.
To analyze the samples, they were thawed, shaken 5 minutes using the vortexer, and the protein was separated by means of 5-minute centrifugation at 10000 rpm. […]

cytochrome P450 (CYP450) [4] = assay: CYP450 substrate study, human liver microsomes and 9000 g supernatant; format: in vitro ADME; conditions: human liver enzyme sources, pH 6.0 and pH 7.4, NADH or NADPH, 60 or 180 minutes
Method: To obtain human microsomes, human liver tissue from cancer patients of the surgical department of the University Clinic of Christian-Albrecht University was obtained who had to undergo hemihepatectomy.
The liver tissue pieces were flash-frozen in a saccharose-containing phosphate buffer (10 mM K2HPO4, 10 mM KH2PO4, 250 mM saccharose, 1 mM Na2 EDTA, pH 7.4, 4° C.). As soon as a sufficient quantity of organ parts (>3) was available, the corresponding pieces were thawed and pooled so as to compensate for differences due to interindividual variations. The tissue pieces were cut into smaller parts at 4° C., washed several times with buffer solution (without EDTA), and processed into a suspension using a homogenizer. The microsomes and 9000 g supernatant were further obtained from this suspension by differential ultracentrifugation. For storage, the resulting preparations were aliquotted and frozen at −80° C.
as §6, with “The batches were stopped by adding the same volume of acetonitrile, shaken using the vortexer, and frozen at −80° C.” left out

[5] = substrate: N/C(=N\OCC(=O)O)c1ccccc1; assay: PAM substrate kinetics (KM and Vmax) by HPLC; format: biochemical, rat; conditions: other: pH 6.0, 30 minutes incubation, two independent experiments (n=2), 37.0 °C
Method: as §1
as §2, with “The incubation was carried out at 37° C. in the shaking water bath for 60 minutes, 100 μl was withdrawn, and the reaction was stopped with 50 μl 10% TFA(aq)/acetonitrile (2:3). The remaining batch was incubated for another 180 minutes at 37° C. and stopped with 100 μl 10% TFA(aq)/acetonitrile (2:3).” left out
as §4, §5

[6] = substrate: O=C(O)CON=C(Nc1ccccc1)Nc1ccccc1; assay: PAM substrate kinetics (KM and Vmax) by HPLC; format: biochemical, rat; conditions: other: pH 6.0, 30 minutes incubation, two independent experiments (n=2), 37.0 °C
Method: as §1
as §2, with “The incubation was carried out at 37° C. in the shaking water bath for 60 minutes, 100 μl was withdrawn, and the reaction was stopped with 50 μl 10% TFA(aq)/acetonitrile (2:3). The remaining batch was incubated for another 180 minutes at 37° C. and stopped with 100 μl 10% TFA(aq)/acetonitrile (2:3).” left out
as §4, §5

- conversion rate in comparison with the amidoxime prodrug 1 ([2]; comparison of Vmax): comparable
- Vmax value [2]: 373 ± 53 nmol min⁻¹ mg⁻¹ PAM
Molecule: O=C(O)CON=C(Nc1ccccc1)Nc1ccccc1 [compound 3, N-carboxymethoxy-N′,N″-diphenyl guanidine]
- formation of glyoxylate as the cleavage product of the PAM catalysis [1]: comparable to those of the amidoxime model compound 1

- conversion at the pH optimum of PAM (pH 6.0) in comparison with incubation at pH 7.4 ([1]; colorimetric glyoxylate determination, FIG. 1): considerably higher conversions
- Vmax value [2]: 393±40 nmol min^−1 mg^−1 PAM
Molecule: N/C(=N\OCC(=O)O)c1ccccc1 [compound 1, O-carboxymethyl benzamidoxime]
- formation of glyoxylate as the cleavage product of the PAM catalysis [1]: verified in an concentration-dependent manner
- detection of O-dealkylated metabolite and its N-reduction product by HPLC (cytochrome P450 (CYP450) [3]): neither benzamidoxime possible prodrug of benzamidine) nor benzamidine were detected
- detection of O-dealkylated metabolite and its N-reduction product by HPLC (cytochrome P450 (CYP450) [4]): neither benzamidoxime possible prodrug of benzamidine) nor benzamidine were detected

B1: peptidylglycine α-amidating monooxygenase (PAM) (Rattus norvegicus) (protein)
chain: T1 sequence (P14925 36-871 isoform P14925-2 limits assumed)
notes: purchased Unigene Laboratories, Inc. (New Jersey, USA)
- Km [5]: 307 ± 80 µM
- Km [6]: 37 ± 5 µM
